The source of these data is DBAASP.

Converted amounts (≈) assume the structure as drawn. “And” between values parts separate entries of the source, which are not always exact repeats. Identical values can stand only once.

Some test systems named below: Bacillus cereus AS1.1846; Bacillus subtilis; Botrytis cinerea; Escherichia coli; Fusarium verticillioides; Proteus vulgaris; Pseudomonas aeruginosa; Saccharomyces cerevisiae; Salmonella typhimurium; Staphylococcus aureus; Trichosporon beigelii.
Test in all cases: ≥ marks a high value that may be exact or a test limit, other limits are often not marked, values filed in µg/mL are converted to µM
Experiment [1] deals with Escherichia coli K-12 594.
Experiment [2] concerns Staphylococcus aureus ATCC 6538P.
Experiment [3] deals with Staphylococcus aureus SR1550.
The subject of experiment [4] is Listeria monocytogenes ATCC 19114.
In experiment [5] the test system is Escherichia coli ATCC 11775.
The test system of experiment [6] is Escherichia coli ATCC 25922.
The subject of experiment [7] is Escherichia coli ATCC 35218.
Experiment [8] has as its system Salmonella enterica subsp. enterica serovar Typhi Vi+.
The test system of experiment [9] is Salmonella enterica subsp. enterica serovar Typhimurium ATCC 14028.
The test system of experiment [10] is Aspergillus flavus KCTC 9471.
Experiment [11] relates to Aspergillus fumigatus KCTC 6145.
Experiment [12] deals with Candida albicans KCTC 7270.
Experiment [13] deals with Escherichia coli O157:H7 ATCC 43895.
Experiment [14] has as its system Listeria monocytogenes KCTC 3710.
Experiment [15] concerns Staphylococcus epidermidis.
In experiment [16] the test system is Candida albicans NCTC 3179.
Experiment [17] relates to Staphylococcus aureus ATCC 25923.
In experiment [18] the test system is Bacillus cereus ATCC 11778.
Experiment [19] has as its system Bacillus subtilis ATCC 23857.
For experiment [20], the system named is Candida albicans ATCC 10231.
Experiment [21] relates to Candida albicans NCTC 1467.
Experiment [22] concerns Enterococcus faecalis ATCC 29212.
For experiment [23], the system named is Enterococcus faecalis NCTC 12697.
For experiment [24], the system named is Escherichia coli NCTC 10418.
Experiment [25] relates to Klebsiella pneumoniae ATCC 700603.
Experiment [26] relates to Listeria monocytogenes ATCC 15313.
Experiment [27] deals with Pseudomonas aeruginosa ATCC 27853.
Experiment [28] deals with Salmonella enterica subsp. enterica serovar Enteritidis ATCC 13076.
The test system of experiment [29] is Staphylococcus aureus ATCC 12493.
In experiment [30] the test system is Staphylococcus aureus NCTC 10788.

With `CC(C)C[C@H](NC(=O)[C@H](CC(C)C)NC(=O)[C@H](CC(C)C)NC(=O)[C@H](CC(C)C)NC(=O)[C@H](CC(C)C)NC(=O)[C@@H](N)CCCCN)C(=O)N[C@@H](CCCCN)C(N)=O` [KLLLLLK], the MIC in [1] is 29.8 µM (≈ 25 µg/mL); in [2], 19 µM (≈ 16 µg/mL); in experiment [3] it was not below 41.7 µM.
As to `CC(C)[C@H](N)C(=O)N[C@@H](CO)C(=O)NCC(=O)N1CCC[C@H]1C(=O)N[C@@H](C)C(=O)NCC(=O)N1CCC[C@H]1C(=O)N1CCC[C@H]1C(=O)NCC(=O)N[C@H](C(=O)N[C@@H](Cc1cnc[nH]1)C(=O)O)[C@@H](C)O` [VSGPAGPPGTH], the MIC (against Bacillus cereus AS1.1846; in [4]) was 16.4 µM (≈ 16 µg/mL) throughout.
As to `CC[C@H](C)[C@H](NC(=O)[C@@H]1CCCN1C(=O)[C@H](CCCN=C(N)N)NC(=O)[C@@H]1CCCN1C(=O)[C@H](Cc1cnc[nH]1)NC(=O)[C@@H]1CCCN1C(=O)[C@@H]1CCCN1C(=O)[C@@H]1CCCN1C(=O)[C@H](CCCN=C(N)N)NC(=O)[C@@H]1CCCN1C(=O)[C@@H]1CCCN1C(=O)[C@H](Cc1ccc(O)cc1)NC(=O)[C@@H]1CCCN1C(=O)[C@H](CCCN=C(N)N)NC(=O)[C@@H]1CCCN1C(=O)[C@H](CCCCN)NC(=O)CN)C(=O)N[C@@H](CCCN=C(N)N)C(=O)N[C@H](C(=O)O)C(C)C` [GKPRPYPPRPPPHPRPIRV], the MIC is 0.3 µM (≈ 0.664 µg/mL) in experiment [5]; 0.3 µM (≈ 0.664 µg/mL) in experiment [6]; 0.2 µM (≈ 0.443 µg/mL) in experiment [7]; 0.6 µM (≈ 1.33 µg/mL) in [8]; 0.6 µM (≈ 1.33 µg/mL) in [9].
Regarding `CC[C@H](C)[C@H](NC(=O)[C@H](CCCCN)NC(=O)[C@H](CO)NC(=O)[C@H](Cc1ccccc1)NC(=O)[C@H](CC(C)C)NC(=O)[C@H](CCCCN)NC(=O)[C@H](CCC(=O)O)NC(=O)[C@H](CC(C)C)NC(=O)[C@H](CCCN=C(N)N)NC(=O)[C@H](CCCCN)NC(=O)[C@H](Cc1ccccc1)NC(=O)[C@@H](NC(=O)[C@H](CCCCN)NC(=O)[C@H](CCCCN)NC(=O)[C@H](C)N)C(C)C)C(=O)N[C@@H](CCC(N)=O)C(=O)N[C@@H](CC(N)=O)C(=O)N[C@@H](Cc1c[nH]c2ccccc12)C(=O)N[C@@H](CCCCN)C(N)=O` [AKKVFKRLEKLFSKIQNWK], the MIC in experiment [10] was not below 50 µM; in experiment [11], not below 50 µM; in the experiment with Bacillus subtilis it was 1.56 µM (≈ 3.73 µg/mL); against Botrytis cinerea, 6.25 µM (≈ 14.9 µg/mL); in experiment [12] it was 25 µM (≈ 59.8 µg/mL); in experiment [13] it was 6.25 µM (≈ 14.9 µg/mL). The MIC is 0.78 µM (≈ 1.86 µg/mL) with Escherichia coli; 12.5 µM (≈ 29.9 µg/mL) against Fusarium verticillioides; 0.78 µM (≈ 1.86 µg/mL) in experiment [14]; 3.13 µM (≈ 7.48 µg/mL) with Proteus vulgaris; 3.13 µM (≈ 7.48 µg/mL) in the experiment on Pseudomonas aeruginosa; 25 µM (≈ 59.8 µg/mL) against Saccharomyces cerevisiae. The MIC in the experiment on Salmonella typhimurium was 0.39 µM (≈ 0.932 µg/mL); in the experiment on Staphylococcus aureus, 3.13 µM (≈ 7.48 µg/mL); in experiment [15], 3.13 µM (≈ 7.48 µg/mL); against Trichosporon beigelii it was 1.56 µM (≈ 3.73 µg/mL).
In the case of `CC[C@H](C)[C@H](NC(=O)[C@H](CCCCN)NC(=O)[C@@H](NC(=O)[C@@H](NC(=O)[C@H](CO)NC(=O)[C@H](CC(=O)O)NC(=O)[C@@H](NC(=O)[C@H](CC(N)=O)NC(=O)[C@@H](N)CC(=O)O)[C@@H](C)O)C(C)C)C(C)C)C(=O)N[C@@H](CCC(N)=O)C(=O)N[C@@H](CO)C(=O)N[C@@H](Cc1c[nH]c2ccccc12)C(=O)N[C@@H](Cc1ccccc1)C(=O)N[C@@H](CCCN=C(N)N)C(=O)N[C@@H](CCSC)C(=O)N[C@@H](C)C(=O)N[C@H](C(=O)N[C@@H](C)C(=O)N[C@@H](CCCN=C(N)N)C(=O)N[C@@H](CCCCN)C(=O)N[C@@H](CO)C(=O)N[C@@H](Cc1ccc(O)cc1)C(=O)N[C@@H](CC(C)C)C(=O)O)[C@@H](C)O` [DNTDSVVKIQSWFRMATARKSYL], the MIC in [16] worked out at 25.8 µM (≈ 70 µg/mL); in [6], 1.25 µM (≈ 3.4 µg/mL); in experiment [17], 26.5 µM (≈ 72 µg/mL).
Turning to `CC[C@H](C)[C@H](NC(=O)[C@H](CCCCN)NC(=O)[C@H](CCCCN)NC(=O)[C@H](C)NC(=O)[C@@H](NC(=O)[C@H](C)NC(=O)[C@H](CC(C)C)NC(=O)[C@H](CC(C)C)NC(=O)[C@H](C)NC(=O)[C@H](CCCCN)NC(=O)[C@H](CC(C)C)NC(=O)[C@H](CC(N)=O)NC(=O)[C@@H](N)CC(C)C)C(C)C)C(=O)N[C@@H](CC(C)C)C(N)=O` [LNLKALLAVAKKIL], the MIC in experiment [18] is 4 µM and 8 µM; in experiment [19], 4 µM (≈ 6.03 µg/mL); in [20], 8 µM (≈ 12.1 µg/mL); in experiment [21] it was 4 µM (≈ 6.03 µg/mL); in experiment [22], not below 32 µM; in [23] it was 8 µM (≈ 12.1 µg/mL). The minimum inhibitory concentration (MIC) in experiment [6] is 4 µM and 8 µM; in experiment [24], 4 µM (≈ 6.03 µg/mL); in the experiment with Escherichia coli, 4 µM (≈ 6.03 µg/mL); in [25] it was 8 µM (≈ 12.1 µg/mL); in [26], 4 µM (≈ 6.03 µg/mL); in [27], 8 µM and 16 µM. Besides, the MIC in experiment [28] worked out at 4 µM (≈ 6.03 µg/mL); in experiment [29], 4 µM (≈ 6.03 µg/mL); in [17] it was 4 µM (≈ 6.03 µg/mL); in [30] it was 2 µM (≈ 3.01 µg/mL).

By MIC is commonly meant the least concentration at which growth counts as inhibited. High values mean weaker potency, low ones greater potency.
